# Laboratory results from publication PMC2580802 (Cell, 2008).
# Like-named read-outs stand apart in the source and are kept apart here.
# How the values were obtained:
# [1] = tested on: Escherichia coli DH21tolC; settings: ref Irschik et al., 1995; J.M. and R.H.E., unpublished; cited from earlier work
# [2] = target: T1, wild-type RNAP (Escherichia coli, UniProt P0A8T7+P0A8V2)
# [3] = tested on: bacterial RNAP; settings: read-out: IC50, inhibition of bacterial RNAP; cited from earlier work
# [4] = target: T1, wild-type RNAP; remark: listed apart in the source
# [5] = tested on: Staphylococcus aureus; settings: ref Irschik et al., 1995; J.M. and R.H.E., unpublished; cited from earlier work
# [6] = tested on: eukaryotic RNAP II; settings: cited from earlier work
# [7] = tested on: E. coli DH21f2tolC; assay type: cell-based; settings: assessed with E. coli DH21f2tolC; J.M. and R.H.E., unpublished
# [8] = tested on: E. coli mutants with single substitutions in RNAP β′ or β subunit; assay type: cell-based
# [9] = tested on: E. coli with wild-type RNAP β′ and wild-type RNAP β; assay: microbe, parasite or virus in culture; assay type: cell-based; settings: Escherichia coli
# [10] = target: T2, Myx^r RNAP ([Arg345]β′-RNAP) (Escherichia coli, UniProt P0A8T7+P0A8V2, K345R)
# [11] = target: T. thermophilus RNAP holoenzyme (Thermus thermophilus, UniProt Q8RQE8+Q8RQE9); assay type: biochemical; settings: read-out: IC50, inhibition of T. thermophilus RNAP holoenzyme
# [12] = tested on: Enterobacter cloacae; settings: cited from earlier work
# [13] = target: T2, Myx^r RNAP ([Arg345]β′-RNAP); assay type: biochemical, E. coli
Compound,MIC [1] [µg/mL],effect on interaction of RNAP with promoter DNA [2],IC50 [3] [µM],effect on transcription initiation [4],MIC [5] [µg/mL],inhibition of eukaryotic RNAP II [6],bacteriocidal activity [7],cross-resistance of Myx^r mutants ([8]; Myx^r mutants (Table 1)),MIC [9] [µg/mL],inhibition of open-complex formation with Myx^r RNAP [10],"inhibition of formation of stable, heparin-resistant RNAP-DNA complex ([2]; fork-junction DNA fragment (lacks positions −11 to +15 of template strand))","inhibition of formation of stable, heparin-resistant RNAP-DNA complexes ([2]; nontemplate-strand oligonucleotide (positions −21 to +15))","IC50 ([2]; read-out: IC50, inhibition of formation of stable, heparin-resistant RNAP-promoter open complex, promoter DNA fragment) [µM]",increase in MIC ([8]; all four Myx^r mutants from random mutagenesis (Table S1)) [fold],increase in MIC ([8]; three of four Myx^r mutants from random mutagenesis (Table S1)) [fold],"IC50 ([4]; read-out: IC50, inhibition of formation of abortive products, run-off transcription, promoter DNA fragment) [µM]",IC50 [11] [µM],MIC [12] [µg/mL],inhibition of transcription with Myx^r RNAP [13]
"C/C(=C\Cc1ccccc1)CC[C@@]1(O)C[C@H]2C[C@@H](C/C(C)=C/C/C=C/C/C(CC(=O)O)=C\C(=O)O2)O1 [Rip, ripostatin A]",≤ 1,prevents interaction of RNAP with promoter DNA,~0.8,inhibits transcription initiation,≤ 1,does not inhibit,bacteriocidal,–,–,–,–,–,–,–,–,–,–,–,–
"CO[C@H]1/C=C/O[C@@]2(C)Oc3c(C)c(O)c4c(O)c(c(/C=N/N5CCN(C)CC5)c(O)c4c3C2=O)NC(=O)/C(C)=C\C=C\[C@H](C)[C@H](O)[C@@H](C)[C@@H](O)[C@@H](C)[C@H](OC(C)=O)[C@@H]1C [Rif, rifampicin]",–,–,–,–,–,–,–,do not exhibit cross-resistance,0.1,–,–,–,–,–,–,–,–,–,–
"C/C=C/C/C=C(\C)C(O)CC/C(C)=C/C=C(\C)C(=O)c1c(O)cc([C@H](C)CC/C=C/NC(=O)OC)oc1=O (stereo partly shown) [Cor, corallopyronin A]",–,prevents interaction of RNAP with promoter DNA,~4,inhibits transcription initiation,–,does not inhibit,bacteriocidal,–,1.6,–,–,–,–,–,–,–,–,–,–
"CCC/C(C)=C/C=C(\C)C(=O)c1c(O)cc([C@H](C)CC/C=C/NC(=O)OC)oc1=O [Myx, myxopyronin A]",–,–,~1,–,–,does not inhibit,bacteriocidal,–,–,abrogates inhibition,does not inhibit,does not inhibit,0.8 ± 0.3,≥ 2,≥ 32,1.7 ± 0.6,20,≤ 12.5,abrogates inhibition
